Converted amounts (≈) assume the structure as drawn.
Assays:
Assay type in all cases: functional
[1] = tested on: Pseudomonas aeruginosa; experiment: Antimicrobial activity against Pseudomonas aeruginosa after 24 hrs by well-diffusion assay; also: test concentration or dose not given here
[2] = tested on: Bacillus subtilis; experiment: Antimicrobial activity against Bacillus subtilis after 24 hrs by well-diffusion assay; also: test concentration or dose not given here
[3] = tested on: Staphylococcus aureus; experiment: Antimicrobial activity against Staphylococcus aureus after 24 hrs by well-diffusion assay; also: test concentration or dose not given here
[4] = tested on: Escherichia coli; experiment: Antimicrobial activity against Escherichia coli after 24 hrs by well-diffusion assay; also: test concentration or dose not given here
[5] = tested on: Streptococcus sp.; experiment: Antimicrobial activity against Streptococcus spp. after 24 hrs by well-diffusion assay; also: test concentration or dose not given here
[6] = tested on: Escherichia coli; experiment: Antimicrobial activity against Escherichia coli after 24 hrs by microbroth dilution assay
[7] = tested on: Staphylococcus aureus; experiment: Antimicrobial activity against Staphylococcus aureus after 24 hrs by microbroth dilution assay
[8] = tested on: Klebsiella pneumoniae; experiment: Antimicrobial activity against Klebsiella pneumoniae after 24 hrs by well-diffusion assay; also: test concentration or dose not given here
[9] = tested on: Proteus mirabilis; experiment: Antimicrobial activity against Proteus mirabilis after 24 hrs by well-diffusion assay; also: test concentration or dose not given here

| Structure (SMILES) | inhibition zone (IZ) [1] | inhibition zone (IZ) [2] | inhibition zone (IZ) [3] | inhibition zone (IZ) [4] | inhibition zone (IZ) [5] | MIC [6] | MIC [7] | inhibition zone (IZ) [8] | inhibition zone (IZ) [9] |
| --- | --- | --- | --- | --- | --- | --- | --- | --- | --- |
| Sc1nnnn1-c1ccccc1 | 11 mm | 16 mm | 18 mm | 14 mm | 12 mm | 1.77 µg/mL (≈ 9.91 µM) | 1.76 µg/mL (≈ 9.9 µM) | 8 mm | 19 mm |
| OCn1nnn(-c2ccccc2)c1=S | 23 mm | 30 mm | 32 mm | 31 mm | 42 mm | 0.58 µg/mL (≈ 2.79 µM) | 1.76 µg/mL (≈ 8.45 µM) | 19 mm | 26 mm |
| O=c1n(Cc2ccccc2)nnn1-c1ccccc1 | 0 mm | 0 mm | 0 mm | 0 mm | 0 mm |  |  | 0 mm | 7 mm |
| c1ccc(CSc2nnnn2-c2ccccc2)cc1 | 0 mm | 0 mm | 0 mm | 0 mm | 0 mm |  |  | 0 mm | 0 mm |
| CC(=O)OCn1nnn(-c2ccccc2)c1=S | 0 mm | 12 mm | 10 mm | 0 mm | 0 mm | 13.9 µg/mL (≈ 55.5 µM) | 4.62 µg/mL (≈ 18.5 µM) | 0 mm | 15 mm |
| O=c1n(CCOCc2ccccc2)nnn1-c1ccccc1 | 0 mm | 0 mm | 0 mm | 0 mm | 0 mm |  |  | 0 mm | 20 mm |
| O=c1n(CCCCCCn2nnn(-c3ccccc3)c2=O)nnn1-c1ccccc1 | 0 mm | 0 mm | 0 mm | 0 mm | 0 mm |  |  | 0 mm | 0 mm |
| O=C(O)CCC(=O)OCn1nnn(-c2ccccc2)c1=S | 17 mm | 12 mm | 24 mm | 11 mm | 19 mm | 1.37 µg/mL (≈ 4.44 µM) | 1.37 µg/mL (≈ 4.44 µM) | 16 mm | 11 mm |
| c1ccc(-n2nnnc2SCCCCCCSc2nnnn2-c2ccccc2)cc1 | 0 mm | 0 mm | 0 mm | 0 mm | 0 mm |  |  | 0 mm | 0 mm |
| CCOC(=O)CSc1nnnn1-c1ccccc1 | 0 mm | 13 mm | 9 mm | 0 mm | 13 mm | 15.9 µg/mL (≈ 60 µM) | 5.29 µg/mL (≈ 20 µM) | 0 mm | 14 mm |
| O=c1n(CCO)nnn1-c1ccccc1 | 0 mm | 12 mm | 0 mm | 11 mm | 0 mm | 8 µg/mL (≈ 38.8 µM) | 5.29 µg/mL (≈ 25.7 µM) | 13 mm | 12 mm |
| CC(=O)OCCn1nnn(-c2ccccc2)c1=O | 0 mm | 9 mm | 0 mm | 12 mm | 0 mm | 37 µg/mL (≈ 149 µM) | 37 µg/mL (≈ 149 µM) | 0 mm | 15 mm |
| CC(=O)OCn1nnn(-c2ccccc2)c1=O | 0 mm | 14 mm | 9 mm | 0 mm | 10 mm | 13.9 µg/mL (≈ 59.3 µM) | 2.66 µg/mL (≈ 11.4 µM) | 0 mm | 11 mm |
| O=c1n(CO)nnn1-c1ccccc1 | 24 mm | 33 mm | 38 mm | 30 mm | 42 mm | 1.76 µg/mL (≈ 9.16 µM) | 0.19 µg/mL (≈ 0.989 µM) | 22 mm | 34 mm |
| O=c1[nH]nnn1-c1ccccc1 | 0 mm | 14 mm | 12 mm | 10 mm | 11 mm | 1.54 µg/mL (≈ 9.52 µM) | 1.54 µg/mL (≈ 9.52 µM) | 9 mm | 0 mm |
